Experimental data reported in ChEMBL document CHEMBL3414515, “Design of a potent antibiotic peptide based on the active region of human defensin 5” (J Med Chem, 2015).
In brackets after ≈: the same amount, converted by molar mass. Activity calls are given as the source filed them. No cut-off for these calls is given here. Positions of bridges follow the written chain, without caps; N, C: chain ends. Residues, ends and D or L forms follow the SMILES beside them.

Legend:
Escherichia coli [1] = assay: Antibacterial activity against Escherichia coli ATCC 25922 assessed as reduction in bacterial survival rate; format: functional; conditions: for LC50: Escherichia coli, ATCC 25922, read-out: LD50 (the source's name)
Staphylococcus aureus [2] = assay: Antibacterial activity against Staphylococcus aureus ATCC 25923 assessed as reduction in bacterial survival rate; format: functional; conditions: for LC50: Staphylococcus aureus, ATCC 25923, read-out: LD50 (the source's name)
Staphylococcus aureus [3] = assay: Antibacterial activity against Staphylococcus aureus ATCC 25923 assessed as reduction in bacterial survival rate at 25 ug/ml in presence of 10% mouse serum; format: functional, organism-based
[4] = Stability in presence of 400 U/L trypsin assessed as compound degradation at 100 ug/ml after 4 to 12 hrs by HPLC and LC-MS method; format: physicochemical; conditions: isolated protein
Escherichia coli [5] = assay: Antibacterial activity against Escherichia coli ATCC 25922 assessed as reduction in bacterial survival rate 12.5 ug/ml in presence of 150 mM NaCl; format: functional, organism-based
Escherichia coli [6] = assay: Antibacterial activity against Escherichia coli ATCC 25922 assessed as reduction in bacterial survival rate at 25 ug/ml in presence of 10% mouse serum; format: functional, organism-based
[7] = Induction of hemolysis in mouse erythrocytes up to 100 ug/ml incubated at 37 degC for 15 mins; format: cell-based, Erythrocyte; conditions: read-out: Activity
[8] = Binding affinity to Rd mutant containing Escherichia coli F583 lipid A assessed as equilibrium dissociation constant in presence of 75 mM NaCl by bilayer interferometry
Escherichia coli [9] = assay: Induction of inner membrane disintegration in Escherichia coli ML35 ATCC 43827 at 1.6 to 6.3 ug/ml by ONPG hydrolysis assay; format: functional, organism-based
[10] = Binding affinity to Staphylococcus aureus lipoteichoic acid assessed as equilibrium dissociation constant by bilayer interferometry
Escherichia coli [11] = assay: Induction of outer membrane disintegration in Escherichia coli ATCC 25922 at 6.25 ug/ml by NPN uptake assay; format: functional, organism-based
[12] = Binding affinity to Rd mutant containing Escherichia coli F583 lipid A assessed as equilibrium dissociation constant by bilayer interferometry
Escherichia coli [13] = assay: Antibacterial activity against Escherichia coli ATCC 25922 assessed as reduction in bacterial survival rate at 12.5 ug/ml in presence of >75 mM NaCl; format: functional, organism-based
Escherichia coli [14] = assay: Induction of inner membrane disintegration in Escherichia coli ML35 ATCC 43827 at 0.78 to 1.6 ug/ml by ONPG hydrolysis assay; format: functional, organism-based
[15] = Induction of hemolysis in mouse erythrocytes at 12.5 and 25 ug/ml incubated at 37 degC for 15 mins; format: cell-based; conditions: erythrocyte, 0.25 h

Structure (SMILES)	LD90 (Escherichia coli [1]) [µg/mL]	LC50 (Escherichia coli [1]) [µg/mL]	LD90 (Staphylococcus aureus [2]) [µg/mL]	LC50 (Staphylococcus aureus [2]) [µg/mL]	Activity (Staphylococcus aureus [3])	Stability [4]	Activity (Escherichia coli [5])	Activity (Escherichia coli [6])	hemolysis at 0.25 h [7] [%]	Kd [8] [nM]	Activity (Escherichia coli [9])	Kd [10] [nM]	Activity (Escherichia coli [11])	Kd [12] [nM]	Activity (Escherichia coli [13])	Activity (Escherichia coli [14])	Activity [15]
CC[C@H](C)[C@@H]1NC(=O)[C@H](CCC(=O)O)NC(=O)[C@@H]2CSSC[C@@H]3NC(=O)[C@H](Cc4ccc(O)cc4)NC(=O)[C@@H](NC(=O)[C@@H](NC(=O)[C@H](C)N)[C@@H](C)O)CSSC[C@@H](C(=O)N[C@@H](CCCNC(=N)N)C(=O)O)NC(=O)[C@H](CSSC[C@H](NC(=O)[C@H](CCCNC(=N)N)NC(=O)CNC(=O)[C@H](CCCNC(=N)N)NC(=O)[C@H](CCCNC(=N)N)NC3=O)C(=O)N[C@@H](C)C(=O)N[C@@H]([C@@H](C)O)C(=O)N[C@@H](CCCNC(=N)N)C(=O)N[C@@H](CCC(=O)O)C(=O)N[C@@H](CO)C(=O)N[C@@H](CC(C)C)C(=O)N[C@@H](CO)C(=O)NCC(=O)N[C@@H](C(C)C)C(=O)N2)NC(=O)[C@H](CC(C)C)NC(=O)[C@H](CCCNC(=N)N)NC(=O)[C@H](Cc2ccc(O)cc2)NC(=O)[C@H](CC(C)C)NC(=O)[C@H](CCCNC(=N)N)NC(=O)CNC(=O)[C@H](CO)NC1=O (H-ATCYCRRGRCATRESLSGVCEISGRLYRLCCR-OH; disulfide 3-31, 5-20, 10-30)	5	1.4 (≈ 0.385 µM)	2.8	1.3 (≈ 0.357 µM)	–	–	–	–	–	–	–	–	–	–	–	–	–
CC[C@H](C)[C@@H]1NC(=O)[C@H](CCCNC(=N)N)NC(=O)[C@@H]2CSSC[C@@H]3NC(=O)[C@H](Cc4ccc(O)cc4)NC(=O)[C@@H](NC(=O)[C@@H](NC(=O)[C@H](C)N)[C@@H](C)O)CSSC[C@@H](C(=O)N[C@@H](CCCNC(=N)N)C(=O)O)NC(=O)[C@H](CSSC[C@H](NC(=O)[C@H](CCCNC(=N)N)NC(=O)CNC(=O)[C@H](CCCNC(=N)N)NC(=O)[C@H](CCCNC(=N)N)NC3=O)C(=O)N[C@@H](C)C(=O)N[C@@H]([C@@H](C)O)C(=O)N[C@@H](CCCNC(=N)N)C(=O)N[C@@H](CCC(=O)O)C(=O)N[C@@H](CO)C(=O)N[C@@H](CC(C)C)C(=O)N[C@@H](CO)C(=O)NCC(=O)N[C@@H](C(C)C)C(=O)N2)NC(=O)[C@H](CC(C)C)NC(=O)[C@H](CCCNC(=N)N)NC(=O)[C@H](Cc2ccc(O)cc2)NC(=O)[C@H](CC(C)C)NC(=O)[C@H](CCCNC(=N)N)NC(=O)CNC(=O)[C@H](CO)NC1=O (H-ATCYCRRGRCATRESLSGVCRISGRLYRLCCR-OH; disulfide 3-31, 5-20, 10-30)	1.8	0.8 (≈ 0.218 µM)	1.4	< 0.39	Active	Stable	Active	Active	≤ 1	48	–	–	–	–	–	–	–
CC[C@H](C)[C@@H]1NC(=O)[C@H](CCC(=O)O)NC(=O)[C@@H]2CSSC[C@@H]3NC(=O)[C@H](Cc4ccc(O)cc4)NC(=O)[C@@H](NC(=O)[C@@H](NC(=O)[C@H](C)N)[C@@H](C)O)CSSC[C@@H](C(=O)N[C@@H](CCCNC(=N)N)C(=O)O)NC(=O)[C@H](CSSC[C@H](NC(=O)[C@H](CCCNC(=N)N)NC(=O)CNC(=O)[C@H]([C@@H](C)O)NC(=O)[C@H](CCCNC(=N)N)NC3=O)C(=O)N[C@@H](C)C(=O)N[C@@H]([C@@H](C)O)C(=O)N[C@@H](CCCNC(=N)N)C(=O)N[C@@H](CCC(=O)O)C(=O)N[C@@H](CO)C(=O)N[C@@H](CC(C)C)C(=O)N[C@@H](CO)C(=O)NCC(=O)N[C@@H](C(C)C)C(=O)N2)NC(=O)[C@H](CC(C)C)NC(=O)[C@H](CCCNC(=N)N)NC(=O)[C@H](Cc2ccc(O)cc2)NC(=O)[C@H](CC(C)C)NC(=O)[C@H](CCCNC(=N)N)NC(=O)CNC(=O)[C@H](CCCNC(=N)N)NC1=O (H-ATCYCRTGRCATRESLSGVCEIRGRLYRLCCR-OH; disulfide 3-31, 5-20, 10-30)	6	1.7 (≈ 0.466 µM)	3	1.5 (≈ 0.411 µM)	–	–	–	–	–	–	–	–	–	–	–	–	–
CC[C@H](C)[C@@H]1NC(=O)[C@H](CCC(=O)O)NC(=O)[C@@H]2CSSC[C@@H]3NC(=O)[C@H](Cc4ccc(O)cc4)NC(=O)[C@@H](NC(=O)[C@@H](NC(=O)[C@H](C)N)[C@@H](C)O)CSSC[C@@H](C(=O)N[C@@H](CCCNC(=N)N)C(=O)O)NC(=O)[C@H](CSSC[C@H](NC(=O)[C@H](CCCNC(=N)N)NC(=O)CNC(=O)[C@H]([C@@H](C)O)NC(=O)[C@H](CCCNC(=N)N)NC3=O)C(=O)N[C@@H](C)C(=O)N[C@@H]([C@@H](C)O)C(=O)N[C@@H](CCCNC(=N)N)C(=O)N[C@@H](CCC(=O)O)C(=O)N[C@@H](CO)C(=O)N[C@@H](CC(C)C)C(=O)N[C@@H](CO)C(=O)NCC(=O)N[C@@H](C(C)C)C(=O)N2)NC(=O)[C@H](CC(C)C)NC(=O)[C@H](CCCNC(=N)N)NC(=O)[C@H](Cc2ccc(O)cc2)NC(=O)[C@H](CC(C)C)NC(=O)[C@H](CCCNC(=N)N)NC(=O)CNC(=O)[C@H](CO)NC1=O (H-ATCYCRTGRCATRESLSGVCEISGRLYRLCCR-OH; disulfide 3-31, 5-20, 10-30)	6.6	3.3 (≈ 0.921 µM)	3.4	1.9 (≈ 0.53 µM)	inactive	–	–	inactive	–	210	Active	220	Active	120	inactive	–	–
CC[C@H](C)[C@@H]1NC(=O)[C@H](CCC(=O)O)NC(=O)[C@@H]2CSSC[C@@H]3NC(=O)[C@H](Cc4ccc(O)cc4)NC(=O)[C@@H](NC(=O)[C@@H](NC(=O)[C@H](C)N)[C@@H](C)O)CSSC[C@@H](C(=O)N[C@@H](CCCNC(=N)N)C(=O)O)NC(=O)[C@H](CSSC[C@H](NC(=O)[C@H](CCCNC(=N)N)NC(=O)CNC(=O)[C@H]([C@@H](C)O)NC(=O)[C@H](CCCNC(=N)N)NC3=O)C(=O)N[C@@H](C)C(=O)N[C@@H]([C@@H](C)O)C(=O)N[C@@H](CCCNC(=N)N)C(=O)N[C@@H](CCC(=O)O)C(=O)N[C@@H](CO)C(=O)N[C@@H](CC(C)C)C(=O)N[C@@H](CO)C(=O)NCC(=O)N[C@@H](C(C)C)C(=O)N2)NC(=O)[C@H](CC(C)C)NC(=O)[C@H](CCCNC(=N)N)NC(=O)[C@H](Cc2ccc(O)cc2)NC(=O)[C@H](CC(C)C)NC(=O)[C@H](CCCNC(=N)N)NC(=O)[C@H](CCCNC(=N)N)NC(=O)[C@H](CO)NC1=O (H-ATCYCRTGRCATRESLSGVCEISRRLYRLCCR-OH; disulfide 3-31, 5-20, 10-30)	5.8	1.6 (≈ 0.435 µM)	3.1	1.5 (≈ 0.407 µM)	–	–	–	–	–	–	–	–	–	–	–	–	–
CC[C@H](C)[C@@H]1NC(=O)[C@H](CCCNC(=N)N)NC(=O)[C@@H]2CSSC[C@@H]3NC(=O)[C@H](Cc4ccc(O)cc4)NC(=O)[C@@H](NC(=O)[C@@H](NC(=O)[C@H](C)N)[C@@H](C)O)CSSC[C@@H](C(=O)N[C@@H](CCCNC(=N)N)C(=O)O)NC(=O)[C@H](CSSC[C@H](NC(=O)[C@H](CCCNC(=N)N)NC(=O)CNC(=O)[C@H]([C@@H](C)O)NC(=O)[C@H](CCCNC(=N)N)NC3=O)C(=O)N[C@@H](C)C(=O)N[C@@H]([C@@H](C)O)C(=O)N[C@@H](CCCNC(=N)N)C(=O)N[C@@H](CCC(=O)O)C(=O)N[C@@H](CO)C(=O)N[C@@H](CC(C)C)C(=O)N[C@@H](CO)C(=O)NCC(=O)N[C@@H](C(C)C)C(=O)N2)NC(=O)[C@H](CC(C)C)NC(=O)[C@H](CCCNC(=N)N)NC(=O)[C@H](Cc2ccc(O)cc2)NC(=O)[C@H](CC(C)C)NC(=O)[C@H](CCCNC(=N)N)NC(=O)CNC(=O)[C@H](CO)NC1=O (H-ATCYCRTGRCATRESLSGVCRISGRLYRLCCR-OH; disulfide 3-31, 5-20, 10-30)	3.1	1.3 (≈ 0.36 µM)	2.2	0.6 (≈ 0.166 µM)	–	–	–	–	–	–	–	85	Active	33	–	Active	–
CC[C@H](C)[C@H](NC(=O)CN)C(=O)NCC(=O)N[C@@H](C)C(=O)N[C@H](C(=O)N[C@@H](CC(C)C)C(=O)N[C@@H](CCCCN)C(=O)N[C@H](C(=O)N[C@@H](CC(C)C)C(=O)N[C@H](C(=O)N[C@H](C(=O)NCC(=O)N[C@@H](CC(C)C)C(=O)N1CCC[C@H]1C(=O)N[C@@H](C)C(=O)N[C@@H](CC(C)C)C(=O)N[C@H](C(=O)N[C@@H](CO)C(=O)N[C@@H](Cc1c[nH]c2ccccc12)C(=O)N[C@H](C(=O)N[C@@H](CCCCN)C(=O)N[C@@H](CCCNC(=N)N)C(=O)N[C@@H](CCCCN)C(=O)N[C@@H](CCCNC(=N)N)C(=O)N[C@@H](CCC(N)=O)C(=O)N[C@@H](CCC(N)=O)C(N)=O)[C@@H](C)CC)[C@@H](C)CC)[C@@H](C)O)[C@@H](C)O)C(C)C)C(C)C [MELITTIN]	–	–	–	–	–	–	–	–	–	–	–	–	–	–	–	–	Toxic
